What was measured:
Format in all cases: cell-based
Conditions in all cases: compounds at 50 nM and 500 nM
IKZF3 = target: T1, IKZF3 (Homo sapiens, UniProt Q96SW2+Q9UKT9); assay: Western blot degradation of IKZF3 in hPBMCs (24 h)
T1 construct: The supernatant was aspirated as the extracted total cell protein; endogenous in cells; host or cells: human peripheral blood mononuclear cells (hPBMCs)
Method in brief: (§1)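 Compounds were tested at 50 nM and 500 nM on hPBMCs (1×10^6 cells/mL) for 24 h, alongside DMSO. Proteins were detected by Western blot after denaturation at 95 °C; remaining protein computed from normalised band grayscale.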

IKZF2 = target: T2, IKZF2 (Homo sapiens, UniProt Q96SW2+Q9UKS7); assay: Western blot degradation of IKZF2 in hPBMCs (24 h)
T2 construct: The supernatant was aspirated as the extracted total cell protein; endogenous in cells; host or cells: human peripheral blood mononuclear cells (hPBMCs)
Method in brief: as §1

GSPT1 = target: T3, GSPT1 (Homo sapiens, UniProt P15170+Q96SW2); assay: Western blot degradation of GSPT1 in hPBMCs (24 h)
T3 construct: The supernatant was aspirated as the extracted total cell protein; endogenous in cells; host or cells: human peripheral blood mononuclear cells (hPBMCs)
Method in brief: as §1

WEE1 = target: T4, WEE1 (Homo sapiens, UniProt P30291+Q96SW2); assay: Western blot degradation of WEE1 in hPBMCs (24 h)
T4 construct: The supernatant was aspirated as the extracted total cell protein; endogenous in cells; host or cells: human peripheral blood mononuclear cells (hPBMCs)
Method in brief: as §1

CK1α = target: T5, CK1α (Homo sapiens, UniProt P48729+Q96SW2); assay: Western blot degradation of CK1α in hPBMCs (24 h)
T5 construct: The supernatant was aspirated as the extracted total cell protein; endogenous in cells; host or cells: human peripheral blood mononuclear cells (hPBMCs)
Method in brief: as §1

IKZF1 = target: T6, IKZF1 (Homo sapiens, UniProt Q13422+Q96SW2); assay: Western blot degradation of IKZF1 in hPBMCs (24 h)
T6 construct: The supernatant was aspirated as the extracted total cell protein; endogenous in cells; host or cells: human peripheral blood mononuclear cells (hPBMCs)
Method in brief: as §1

T4 sequence (P30291 whole entry): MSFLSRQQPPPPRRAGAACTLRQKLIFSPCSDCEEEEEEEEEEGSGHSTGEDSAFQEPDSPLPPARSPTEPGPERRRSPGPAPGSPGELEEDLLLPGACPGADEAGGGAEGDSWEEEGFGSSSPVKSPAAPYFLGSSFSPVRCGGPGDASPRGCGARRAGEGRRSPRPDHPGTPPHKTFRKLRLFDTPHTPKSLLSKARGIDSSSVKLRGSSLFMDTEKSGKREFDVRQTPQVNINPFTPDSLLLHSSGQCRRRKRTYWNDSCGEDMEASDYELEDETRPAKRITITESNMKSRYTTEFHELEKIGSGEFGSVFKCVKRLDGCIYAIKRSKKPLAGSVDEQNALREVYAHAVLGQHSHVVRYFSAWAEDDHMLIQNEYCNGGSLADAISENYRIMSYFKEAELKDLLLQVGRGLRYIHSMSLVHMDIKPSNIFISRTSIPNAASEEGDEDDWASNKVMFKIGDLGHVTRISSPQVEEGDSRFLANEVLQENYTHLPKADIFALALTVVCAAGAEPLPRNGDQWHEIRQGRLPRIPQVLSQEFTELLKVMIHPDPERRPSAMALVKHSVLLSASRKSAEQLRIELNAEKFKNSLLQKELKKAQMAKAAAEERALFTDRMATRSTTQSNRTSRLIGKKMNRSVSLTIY
T4 sequence (Q96SW2 whole entry): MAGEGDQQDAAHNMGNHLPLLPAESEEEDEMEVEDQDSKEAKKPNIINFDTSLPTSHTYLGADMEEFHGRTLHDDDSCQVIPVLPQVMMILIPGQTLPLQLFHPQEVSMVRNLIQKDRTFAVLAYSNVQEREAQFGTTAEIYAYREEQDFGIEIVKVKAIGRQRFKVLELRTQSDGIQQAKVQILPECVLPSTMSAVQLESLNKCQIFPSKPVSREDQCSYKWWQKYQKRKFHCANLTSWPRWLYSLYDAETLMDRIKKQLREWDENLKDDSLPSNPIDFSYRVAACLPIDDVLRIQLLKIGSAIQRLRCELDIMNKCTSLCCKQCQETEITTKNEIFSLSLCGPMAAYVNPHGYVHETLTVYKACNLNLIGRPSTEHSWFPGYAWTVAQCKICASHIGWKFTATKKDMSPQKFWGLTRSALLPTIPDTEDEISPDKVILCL
T4 sequence (Q16531 whole entry partner): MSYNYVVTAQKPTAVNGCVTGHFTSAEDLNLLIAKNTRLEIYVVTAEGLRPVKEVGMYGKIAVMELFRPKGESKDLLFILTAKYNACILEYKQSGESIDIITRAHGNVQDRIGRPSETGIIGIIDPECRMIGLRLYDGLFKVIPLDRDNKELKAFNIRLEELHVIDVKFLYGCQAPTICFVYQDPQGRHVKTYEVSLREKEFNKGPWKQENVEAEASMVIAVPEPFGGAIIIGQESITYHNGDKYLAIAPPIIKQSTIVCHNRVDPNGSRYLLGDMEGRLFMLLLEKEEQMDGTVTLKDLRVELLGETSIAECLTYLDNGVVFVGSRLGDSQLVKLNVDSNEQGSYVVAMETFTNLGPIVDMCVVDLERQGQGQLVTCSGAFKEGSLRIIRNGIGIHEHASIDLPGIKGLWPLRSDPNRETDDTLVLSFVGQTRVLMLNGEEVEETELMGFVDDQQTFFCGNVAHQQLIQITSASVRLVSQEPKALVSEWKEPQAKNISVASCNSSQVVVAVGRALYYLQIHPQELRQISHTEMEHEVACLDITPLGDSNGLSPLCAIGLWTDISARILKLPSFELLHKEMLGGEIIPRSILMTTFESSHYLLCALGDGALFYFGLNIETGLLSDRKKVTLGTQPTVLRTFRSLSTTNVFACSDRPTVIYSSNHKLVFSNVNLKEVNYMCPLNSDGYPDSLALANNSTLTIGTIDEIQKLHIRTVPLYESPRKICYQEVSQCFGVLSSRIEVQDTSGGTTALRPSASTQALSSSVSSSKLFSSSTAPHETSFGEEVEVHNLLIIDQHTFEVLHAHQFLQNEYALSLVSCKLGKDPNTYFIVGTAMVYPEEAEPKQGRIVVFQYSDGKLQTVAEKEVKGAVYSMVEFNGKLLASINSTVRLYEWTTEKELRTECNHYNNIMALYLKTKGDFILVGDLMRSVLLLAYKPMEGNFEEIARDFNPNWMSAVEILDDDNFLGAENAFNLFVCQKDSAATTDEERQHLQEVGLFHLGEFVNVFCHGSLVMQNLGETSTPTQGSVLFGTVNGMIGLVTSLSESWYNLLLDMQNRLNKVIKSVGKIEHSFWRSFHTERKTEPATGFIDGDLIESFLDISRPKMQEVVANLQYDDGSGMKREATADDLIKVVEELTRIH
T2 sequence (Q9UKS7 whole entry): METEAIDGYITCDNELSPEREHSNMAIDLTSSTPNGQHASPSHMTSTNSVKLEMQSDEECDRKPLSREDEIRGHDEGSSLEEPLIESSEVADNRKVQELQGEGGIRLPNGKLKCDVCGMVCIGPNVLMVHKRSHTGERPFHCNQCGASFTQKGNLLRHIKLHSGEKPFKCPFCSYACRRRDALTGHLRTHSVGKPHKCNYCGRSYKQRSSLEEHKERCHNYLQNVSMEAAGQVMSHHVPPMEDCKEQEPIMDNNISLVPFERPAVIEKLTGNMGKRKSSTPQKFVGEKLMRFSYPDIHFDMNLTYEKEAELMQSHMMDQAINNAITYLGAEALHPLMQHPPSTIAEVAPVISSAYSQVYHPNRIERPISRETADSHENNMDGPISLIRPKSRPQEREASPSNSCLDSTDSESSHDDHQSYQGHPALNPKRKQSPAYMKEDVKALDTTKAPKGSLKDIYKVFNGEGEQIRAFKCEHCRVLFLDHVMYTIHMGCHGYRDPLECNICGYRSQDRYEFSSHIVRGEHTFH
T2 sequence (Q96SW2 whole entry): as the sequence (Q96SW2 whole entry) above
T2 sequence (Q16531 whole entry partner): as the sequence (Q16531 whole entry partner) above
T6 sequence (Q13422 whole entry): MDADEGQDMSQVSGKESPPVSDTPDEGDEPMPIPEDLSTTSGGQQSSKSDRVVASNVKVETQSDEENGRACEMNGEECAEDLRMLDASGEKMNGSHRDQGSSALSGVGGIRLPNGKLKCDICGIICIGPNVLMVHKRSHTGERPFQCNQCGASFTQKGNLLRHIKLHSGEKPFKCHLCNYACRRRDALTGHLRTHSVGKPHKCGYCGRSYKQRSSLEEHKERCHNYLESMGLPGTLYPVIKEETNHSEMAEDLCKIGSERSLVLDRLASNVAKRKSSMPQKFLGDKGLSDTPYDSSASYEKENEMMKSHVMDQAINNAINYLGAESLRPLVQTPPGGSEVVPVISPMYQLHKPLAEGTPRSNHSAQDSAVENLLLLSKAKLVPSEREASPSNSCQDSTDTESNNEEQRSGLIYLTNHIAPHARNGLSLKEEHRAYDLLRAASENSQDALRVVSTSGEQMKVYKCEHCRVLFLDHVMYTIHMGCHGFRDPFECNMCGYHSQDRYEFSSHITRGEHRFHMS
T6 sequence (Q96SW2 whole entry): as the sequence (Q96SW2 whole entry) above
T6 sequence (Q16531 whole entry partner): as the sequence (Q16531 whole entry partner) above
T5 sequence (P48729 whole entry): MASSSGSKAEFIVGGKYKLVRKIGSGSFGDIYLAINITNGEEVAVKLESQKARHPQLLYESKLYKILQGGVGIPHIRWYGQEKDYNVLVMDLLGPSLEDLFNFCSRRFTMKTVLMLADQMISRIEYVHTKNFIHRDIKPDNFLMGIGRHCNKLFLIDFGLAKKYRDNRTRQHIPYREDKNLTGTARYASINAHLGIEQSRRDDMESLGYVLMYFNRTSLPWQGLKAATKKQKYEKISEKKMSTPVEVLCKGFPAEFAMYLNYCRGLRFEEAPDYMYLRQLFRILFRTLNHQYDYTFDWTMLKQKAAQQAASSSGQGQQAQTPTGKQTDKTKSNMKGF
T5 sequence (Q96SW2 whole entry): as the sequence (Q96SW2 whole entry) above
T5 sequence (Q16531 whole entry partner): as the sequence (Q16531 whole entry partner) above
T1 sequence (Q9UKT9 whole entry): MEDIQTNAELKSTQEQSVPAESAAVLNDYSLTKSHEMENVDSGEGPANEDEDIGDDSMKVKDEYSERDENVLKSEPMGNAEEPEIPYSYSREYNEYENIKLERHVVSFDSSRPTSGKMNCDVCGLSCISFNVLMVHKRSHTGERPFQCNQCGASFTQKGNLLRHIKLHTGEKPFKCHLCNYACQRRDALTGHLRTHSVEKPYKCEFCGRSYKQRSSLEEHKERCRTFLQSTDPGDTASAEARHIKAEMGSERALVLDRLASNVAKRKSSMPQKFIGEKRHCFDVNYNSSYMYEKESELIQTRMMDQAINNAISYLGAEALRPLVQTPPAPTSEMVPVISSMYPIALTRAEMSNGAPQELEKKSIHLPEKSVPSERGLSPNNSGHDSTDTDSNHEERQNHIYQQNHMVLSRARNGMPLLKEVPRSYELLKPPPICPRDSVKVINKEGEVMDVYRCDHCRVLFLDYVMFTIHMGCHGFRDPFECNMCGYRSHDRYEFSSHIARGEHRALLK
T1 sequence (Q96SW2 whole entry): as the sequence (Q96SW2 whole entry) above
T1 sequence (Q16531 whole entry partner): as the sequence (Q16531 whole entry partner) above

Compound	IKZF3 substrate protein remaining % (IKZF3)	IKZF2 substrate protein remaining % (IKZF2)	GSPT1 substrate protein remaining % (GSPT1)	WEE1 substrate protein remaining % (WEE1)	CK1α substrate protein remaining % (CK1α)	IKZF1 substrate protein remaining % (IKZF1)
O=C1CCN(N2Cc3cc(CN4CCN(c5ncncn5)CC4)ccc3C2=O)C(=O)N1 [GT-07031, 1-(5-((4-(1,3,5-triazin-2-yl)piperazin-1-yl)methyl)-1-oxoisoindolin-2-yl)dihydropyrimidine-2,4(1H,3H)-dione]	A (0% ≤ substrate protein remaining % ≤80%)	B (80%< substrate protein remaining % ≤100%)	A (0% ≤ substrate protein remaining % ≤80%)	B (80%< substrate protein remaining % ≤100%)	A (0% ≤ substrate protein remaining % ≤80%)	A (0% ≤ substrate protein remaining % ≤80%)
O=C1CCN(N2C(=O)c3ccc(CN4CCC(c5ccnc(F)c5F)CC4)cc3C2=O)C(=O)N1 [GT-07493, 5-((4-(2,3-difluoropyridin-4-yl)piperidin-1-yl)methyl)-2-(2,4-dioxotetrahydropyrimidin-1(2H)-yl)isoindoline-1,3-dione]	A (0% ≤ substrate protein remaining % ≤80%)	B (80%< substrate protein remaining % ≤100%)	B (80%< substrate protein remaining % ≤100%)	B (80%< substrate protein remaining % ≤100%)	A (0% ≤ substrate protein remaining % ≤80%)	B (80%< substrate protein remaining % ≤100%)
O=C1CCN(N2C(=O)c3ccc(CN4C5CCC4CN(C(c4ccccc4)c4ccccc4)C5)cc3C2=O)C(=O)N1 [GT-06455, 5-((3-benzhydryl-3,8-diazabicyclo[3.2.1]octan-8-yl)methyl)-2-(2,4-dioxotetrahydropyrimidin-1(2H)-yl)isoindoline-1,3-dione]	B (80%< substrate protein remaining % ≤100%)	B (80%< substrate protein remaining % ≤100%)	B (80%< substrate protein remaining % ≤100%)	A (0% ≤ substrate protein remaining % ≤80%)	B (80%< substrate protein remaining % ≤100%)	B (80%< substrate protein remaining % ≤100%)
O=C1CCN(N2Cc3cc(CNC45CC6CC(CC(O)(C6)C4)C5)ccc3C2=O)C(=O)N1 [GT-07784, 1-(5-((((1r,3s,5R,7S)-3-hydroxyadamantan-1-yl)amino)methyl)-1-oxoisoindolin-2-yl)dihydropyrimidine-2,4(1H,3H)-dione]	B (80%< substrate protein remaining % ≤100%)	A (0% ≤ substrate protein remaining % ≤80%)	B (80%< substrate protein remaining % ≤100%)	B (80%< substrate protein remaining % ≤100%)	B (80%< substrate protein remaining % ≤100%)	B (80%< substrate protein remaining % ≤100%)
O=C1CCN(N2C(=O)c3ccc(CN4CCN(c5ncnc6ccsc56)CC4)cc3C2=O)C(=O)N1 [GT-08452, 2-(2,4-dioxotetrahydropyrimidin-1(2H)-yl)-5-((4-(thieno[3,2-d]pyrimidin-4-yl)piperazin-1-yl)methyl)isoindoline-1,3-dione]	A (0% ≤ substrate protein remaining % ≤80%)	B (80%< substrate protein remaining % ≤100%)	B (80%< substrate protein remaining % ≤100%)	A (0% ≤ substrate protein remaining % ≤80%)	A (0% ≤ substrate protein remaining % ≤80%)	A (0% ≤ substrate protein remaining % ≤80%)
O=C1CCN(N2C(=O)c3ccc(CN4CCN(c5cccnc5)CC4)cc3C2=O)C(=O)N1 [GT-06971, 2-(2,4-dioxotetrahydropyrimidin-1(2H)-yl)-5-((4-(pyridin-3-yl)piperazin-1-yl)methyl)isoindoline-1,3-dione]	B (80%< substrate protein remaining % ≤100%)	A (0% ≤ substrate protein remaining % ≤80%)	B (80%< substrate protein remaining % ≤100%)	A (0% ≤ substrate protein remaining % ≤80%)	B (80%< substrate protein remaining % ≤100%)	B (80%< substrate protein remaining % ≤100%)
O=C1CCN(N2C(=O)c3ccc(CN4CC=C(c5ccco5)CC4)cc3C2=O)C(=O)N1 [GT-05317, 2-(2,4-dioxotetrahydropyrimidin-1(2H)-yl)-5-((4-(furan-2-yl)-3,6-dihydropyridin-1(2H)-yl)methyl)isoindoline-1,3-dione]	B (80%< substrate protein remaining % ≤100%)	B (80%< substrate protein remaining % ≤100%)	A (0% ≤ substrate protein remaining % ≤80%)	B (80%< substrate protein remaining % ≤100%)	B (80%< substrate protein remaining % ≤100%)	B (80%< substrate protein remaining % ≤100%)
C[C@@H]1CN(C(c2ccccc2)c2ccccc2)CCN1Cc1ccc2c(c1)C(=O)N(N1CCC(=O)NC1=O)C2=O [GT-06449, (R)-5-((4-benzhydryl-2-methylpiperazin-1-yl)methyl)-2-(2,4-dioxotetrahydropyrimidin-1(2H)-yl)isoindoline-1,3-dione]	A (0% ≤ substrate protein remaining % ≤80%)	A (0% ≤ substrate protein remaining % ≤80%)	A (0% ≤ substrate protein remaining % ≤80%)	B (80%< substrate protein remaining % ≤100%)	B (80%< substrate protein remaining % ≤100%)	B (80%< substrate protein remaining % ≤100%)
O=C1CCN(N2C(=O)c3ccc(CN4CCN(c5cccc(F)c5F)CC4)cc3C2=O)C(=O)N1 [GT-06793, 5-((4-(2,3-difluorophenyl)piperazin-1-yl)methyl)-2-(2,4-dioxotetrahydropyrimidin-1(2H)-yl)isoindoline-1,3-dione]	B (80%< substrate protein remaining % ≤100%)	A (0% ≤ substrate protein remaining % ≤80%)	B (80%< substrate protein remaining % ≤100%)	B (80%< substrate protein remaining % ≤100%)	B (80%< substrate protein remaining % ≤100%)	B (80%< substrate protein remaining % ≤100%)
O=C1CCN(N2C(=O)c3ccc(CN4CCN(c5ccc(F)cn5)CC4)cc3C2=O)C(=O)N1 [GT-06965, 2-(2,4-dioxotetrahydropyrimidin-1(2H)-yl)-5-((4-(5-fluoropyridin-2-yl)piperazin-1-yl)methyl)isoindoline-1,3-dione]	B (80%< substrate protein remaining % ≤100%)	A (0% ≤ substrate protein remaining % ≤80%)	B (80%< substrate protein remaining % ≤100%)	B (80%< substrate protein remaining % ≤100%)	B (80%< substrate protein remaining % ≤100%)	B (80%< substrate protein remaining % ≤100%)
O=C1CCN(N2Cc3cc(CN4C5CCC4CN(C(c4ccccc4)c4ccccc4)C5)ccc3C2=O)C(=O)N1 [GT-06454, 1-(5-((3-benzhydryl-3,8-diazabicyclo[3.2.1]octan-8-yl)methyl)-1-oxoisoindolin-2-yl)dihydropyrimidine-2,4(1H,3H)-dione]	B (80%< substrate protein remaining % ≤100%)	B (80%< substrate protein remaining % ≤100%)	B (80%< substrate protein remaining % ≤100%)	A (0% ≤ substrate protein remaining % ≤80%)	B (80%< substrate protein remaining % ≤100%)	B (80%< substrate protein remaining % ≤100%)
O=C1CCN(N2Cc3cc(CN4CC=C(c5cccc(Cl)c5Cl)CC4)ccc3C2=O)C(=O)N1 [GT-08054, 1-(5-((4-(2,3-dichlorophenyl)-3,6-dihydropyridin-1(2H)-yl)methyl)-1-oxoisoindolin-2-yl)dihydropyrimidine-2,4(1H,3H)-dione]	A (0% ≤ substrate protein remaining % ≤80%)	A (0% ≤ substrate protein remaining % ≤80%)	A (0% ≤ substrate protein remaining % ≤80%)	A (0% ≤ substrate protein remaining % ≤80%)	A (0% ≤ substrate protein remaining % ≤80%)	A (0% ≤ substrate protein remaining % ≤80%)
O=C1CCN(N2C(=O)c3ccc(CN4CCN(c5cncc(Cl)c5Cl)CC4)cc3C2=O)C(=O)N1 [GT-06972, 5-((4-(4,5-dichloropyridin-3-yl)piperazin-1-yl)methyl)-2-(2,4-dioxotetrahydropyrimidin-1(2H)-yl)isoindoline-1,3-dione]	B (80%< substrate protein remaining % ≤100%)	A (0% ≤ substrate protein remaining % ≤80%)	B (80%< substrate protein remaining % ≤100%)	A (0% ≤ substrate protein remaining % ≤80%)	B (80%< substrate protein remaining % ≤100%)	B (80%< substrate protein remaining % ≤100%)

— patent US20260356819A1, “OXOISOINDOLINYL-SUBSTITUTED […] DERIVATIVE AND USE THEREOF” (GLUETACS THERAPEUTICS (SHANGHAI) CO., LTD., priority 2023, published 2026)
